According to patent publication US20090105349A1, “ANDROGEN MODULATORS” (WARNER-LAMBERT COMPANY LLC, priority 2004, published 2009):
Substitutions are numbered along the chain they refer to. pIC50: −log10 of the molar value. Like-named read-outs stand apart in the source and are kept apart here.

Legend:
[1] = target: T1, hAR (human androgen receptor) (Homo sapiens, UniProt P10275); test: Competitive hAR binding assay with 3H-DHT tracer
T1 construct: made in house; host or cells: baculovirus/Sf9 insect cells (crude extract)
T1 sequence (P10275 1-920): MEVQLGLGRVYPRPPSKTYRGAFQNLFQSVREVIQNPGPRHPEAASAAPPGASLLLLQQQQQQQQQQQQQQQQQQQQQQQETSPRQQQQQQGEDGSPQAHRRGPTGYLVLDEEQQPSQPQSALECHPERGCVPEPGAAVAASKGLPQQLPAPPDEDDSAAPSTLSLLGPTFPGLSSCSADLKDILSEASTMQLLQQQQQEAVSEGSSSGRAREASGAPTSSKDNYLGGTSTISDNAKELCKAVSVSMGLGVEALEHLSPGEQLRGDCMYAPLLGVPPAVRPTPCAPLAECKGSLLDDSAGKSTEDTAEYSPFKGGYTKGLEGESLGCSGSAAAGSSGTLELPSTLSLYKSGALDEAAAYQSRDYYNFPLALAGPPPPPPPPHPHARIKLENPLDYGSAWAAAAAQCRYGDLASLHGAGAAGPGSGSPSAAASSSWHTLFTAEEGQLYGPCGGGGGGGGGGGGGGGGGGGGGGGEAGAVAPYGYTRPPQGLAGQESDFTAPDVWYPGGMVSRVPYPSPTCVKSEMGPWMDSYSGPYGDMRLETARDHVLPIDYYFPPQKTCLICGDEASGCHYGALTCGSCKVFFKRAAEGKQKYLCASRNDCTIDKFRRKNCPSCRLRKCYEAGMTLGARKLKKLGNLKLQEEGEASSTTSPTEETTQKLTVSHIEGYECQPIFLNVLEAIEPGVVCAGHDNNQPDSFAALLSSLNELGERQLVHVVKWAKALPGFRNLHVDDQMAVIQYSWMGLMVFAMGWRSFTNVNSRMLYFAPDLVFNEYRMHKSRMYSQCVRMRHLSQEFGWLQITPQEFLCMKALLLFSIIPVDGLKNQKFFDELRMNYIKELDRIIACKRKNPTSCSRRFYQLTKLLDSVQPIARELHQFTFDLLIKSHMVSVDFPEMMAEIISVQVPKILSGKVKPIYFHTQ
Protocol: The description below describes how the assay was carried out.
Competitive binding analysis was performed on baculovirus/Sf9 generated hAR extracts in the presence or absence of different concentrations of test agent and a fixed concentration of ^3H-dihydrotestosterone (3H-DHT) as tracer. […] Subsequently, the binding reactions are washed three times to completely remove excess unbound ^3H-DHT. hAR bound ^3H-DHT levels are determined in the presence of compounds (i.e. competitive binding) and compared to levels bound when no competitor is present (i.e. maximum binding). Compound binding affinity to the hAR is expressed as the concentration of compound at which one half of the maximum binding is inhibited.

[2] = target: T2, androgen receptor in MDA-MB453-MMTV clone 54-19 cells (Homo sapiens, UniProt P10275); test: AR antagonist cell assay (MMTV-luciferase reporter); type: cell-based
T2 sequence (P10275 1-920 Q868H): T1 sequence (P10275 1-920) with Q868H
Protocol: The compounds ability to antagonize the effects of androgen on the androgen receptor were determined in a whole cell assay as described immediately below.
This cell line is a stable transfected cell line with MDA-MB453 cell background (a human breast tumor cell line expressing androgen receptor). A MMTV minimal promoter containing ARE was first cloned in front of a firefly luciferase reporter gene. Then the cascade was cloned into transfection vector pUV120puro. […] Puromycin resistant stable cell line was selected.
Plating medium: DMEM (phenol red free), 10% charcoal treated HyClone serum, 1% L-glutamine
Assay medium: DMEM (phenol red free), 1% charcoal treated HyClone serum, 1% L-glutamine, and 1% penicillin/streptomycin
Assay procedure: • 1. Cells are maintained in culture medium, splitting cells when they reach 80-90% confluence • 2. To test compounds, 10,000 cells/well are plated to opaque 96 cell culture plate in 100 ul/well plating medium, culture for overnight at 37° C. in cell culture incubator • 3. […] Add 10 ul/well freshly prepared DHT (final concentration at […]) to each well, incubate at 37° C. for 17 hr (overnight) • 5.
The results are reported as the mean of multiple tests as described below (the numbers of tests are indicated in the footnote). N.D. denotes that the compound was not tested.

[3] = MDA-MB453-MMTV clone 54-19, inhibition of DHT induced luciferase, 17 hr; mean of multiple tests; read-out: AR Cell IC50
[4] = baculovirus/Sf9 hAR extract, 1 nM 3H-DHT, one hour at 4° C, mean of multiple tests, read-out: AR Binding IC50
[5] = read-out: AR Cell IC50; MDA-MB453-MMTV clone 54-19, inhibition of DHT induced luciferase, 17 hr; mean of multiple tests

| Compound | pIC50 [1] | pIC50 [2, 3] | pIC50 [1, 4] | pIC50 [2, 5] |
| --- | --- | --- | --- | --- |
| CCOc1cc(C)ccc1Oc1ccc(C#N)c(Cl)c1 [Example 57, 2-Chloro-4-(2-ethoxy-4-methyl-phenoxy)-benzonitrile] | 8.15 | < 6.00 |  |  |
| CSc1ccc(Oc2ccc(C#N)c(Cl)c2)c(C)c1 [Example 59, 2-Chloro-4-(2-methyl-4-methylsulfanyl-phenoxy)-benzonitrile] |  | 6.76 | 6.57 |  |
| Cc1cc(F)ccc1Oc1ccc(C#N)c(Cl)c1 [Example 60, 2-Chloro-4-(4-fluoro-2-methyl-phenoxy)-benzonitrile] | 7.32 |  |  | 7.14 |
| CCCC(=O)Nc1ccc(Oc2ccc(C#N)c(Cl)c2)cc1 [Example 61, N-[4-(3-Chloro-4-cyano-phenoxy)-phenyl]-butyramide] |  | 6.27 | 6.79 |  |
| CC(C)Oc1ccccc1Oc1ccc(C#N)c(Cl)c1 [Example 63, 2-Chloro-4-(2-isopropoxy-phenoxy)-benzonitrile] | 7.15 |  |  | 8.40 |
| N#Cc1ccc(Oc2ccccc2C(F)(F)F)cc1Cl [Example 64, 4-(2-Trifluoromethyl-phenoxy)-2-chloro-benzonitrile] | 7.47 | 6.07 |  |  |
| N#Cc1ccc(Oc2ccccc2C#N)cc1Cl [Example 65, 2-Chloro-(2-cyano-phenoxy)-benzonitrile] | 7.85 |  |  | 9.49 |
| N#Cc1ccc(Oc2ccccc2)cc1Cl [Example 66, 2-Chloro-4-phenoxy-benzonitrile] |  | 6.48 | 6.83 |  |
| N#Cc1ccc(Oc2ccc(C#N)c(Cl)c2)cc1 [Example 67, 2-Chloro-(4-cyano-phenoxy)-benzonitrile] |  | 6.47 | 6.64 |  |
| Cc1ccc(C)c(Oc2ccc(C#N)c(Cl)c2)c1 [Example 68, 2-Chloro-4-(2,5-dimethyl-phenoxy)-benzonitrile] | 7.16 | < 6.00 |  |  |
| N#Cc1ccc(Oc2ccccc2-c2ccccc2)cc1Cl [Example 69, 4-(Biphenyl-2-yloxy)-2-chloro-benzonitrile] |  | < 6.00 | 6.80 |  |
| N#Cc1ccc(Oc2ccc(O)cc2)cc1C(F)(F)F [Example 80, 4-(4-Hydroxy-phenoxy)-2-trifluoromethyl-benzonitrile] |  |  | 6.68 | 7.21 |
| N#Cc1ccc(Oc2cccc(O)c2)cc1C(F)(F)F [Example 82, 4-(3-Hydroxy-phenoxy)-2-trifluoromethyl-benzonitrile] | 7.07 |  |  | 7.21 |
| CC(=O)c1c(O)cccc1Oc1ccc(C#N)c(C(F)(F)F)c1 [Example 85, 4-(2-Acetyl-3-hydroxy-phenoxy)-2-trifluoromethyl-benzonitrile] |  |  | 6.95 | 8.40 |
| CC(=O)c1ccccc1Oc1ccc(C#N)c(C(F)(F)F)c1 [Example 88, 4-(2-Acetyl-phenoxy)-2-trifluoromethyl-benzonitrile] |  | 6.91 | 6.56 |  |
| COc1ccc(Oc2ccc(C#N)c(C(F)(F)F)c2)c(C(C)=O)c1 [Example 90, 4-(2-Acetyl-4-methoxy-phenoxy)-2-trifluoromethyl-benzonitrile] |  | 6.32 | 6.69 |  |
| N#Cc1ccc(Oc2cccc3ccccc23)cc1C(F)(F)F [Example 97, 4-(Naphthalen-1-yloxy)-2-trifluoromethyl-benzonitrile] | 7.00 | 6.26 |  |  |
| Cc1ccc(Oc2ccc(C#N)c(C(F)(F)F)c2)c(C)c1 [Example 99, 4-(2,4-Dimethyl-phenoxy)-2-trifluoromethyl-benzonitrile] | 7.34 | 6.05 |  |  |
| N#Cc1ccc(Oc2ccc(C#N)c(C(F)(F)F)c2)cc1C#N [Example 100, 4-(4-Cyano-3-trifluoromethyl-phenoxy)-phthalonitrile] |  | 6.09 | 6.76 |  |
| N#Cc1ccc(Oc2ccccc2C2CCCC2)cc1C(F)(F)F [Example 104, 4-(2-Cyclopentyl-phenoxy)-2-trifluoromethyl-benzonitrile] |  | 6.23 | 6.64 |  |
